# From publication PMC5387716, “Discovery of monocarbonyl curcumin-BTP hybrids as STAT3 inhibitors for drug-sensitive and drug-resistant breast cancer therapy” (Scientific Reports, 2017)
# Legend:
# MCF-7 cells [1] = experiment: MTT anti-proliferative assay, MCF-7; format: cell-based, human; conditions: Homo sapiens, MCF7, 48 h, read-out: MCF-7 IC50 ± SD
# Description: (§1) All cell lines were purchased from Cell Bank of Shanghai Institute of Biochemistry and Cell Biology, Chinese Academy of Sciences (Shanghai, China). Human breast carcinoma cells (MCF-7 and MCF-7/DOX), breast epithelial cells (MCF-10A) and normal human liver cells (LO2) were maintained in RPMI-1640 medium. All cells were supplemented with 12% fetal bovine serum containing 50 μg/ml penicillin and 50 μg/ml streptomycin. Cells were grown to 80% confluency in a tissue culture flask at 37 °C in a humidified atmosphere containing 5% CO2, and then were trypsinized with 1 × Trypsin-Versene and split. The MCF-7/DOX cell line we used was established from its parental cell line MCF-7 cell by gradually increasing the concentration of DOX to which the cells were exposed in a stepwise manner over a period of 8 months. […] The cells were incubated in drug-free medium for at least 1 week before use.
# (§2) Cells (MCF-7, MCF-7/DOX, MCF-10A, LO2) were seeded in 96-well plates at a density of 3,000–6,000 cells per well. The cells were incubated overnight (16 h) in a humidified 5% CO2 incubator at 37 °C. After media removal, different concentrations of test compounds were added in triplicate to the plates in 200 μL of fresh media and were incubated with the cells at 37 °C for 48 h. […] Cell viability was evaluated using 3-(4, 5-dimethylthiazolyl)-2,5-diphenyltetrazoliumbromide (MTT). The absorbance was read by an ELISA reader (SpectraMax Plus384, Molecular Devices, Sunnyvale, CA) at a test wavelength of 570 nm and a reference wavelength of 630 nm. Cell viability was calculated using the following formula: […]
# MCF-7/DOX cells [2] = experiment: MTT anti-proliferative assay, MCF-7/DOX; format: cell-based, human; conditions: Homo sapiens, MCF7-DOX; MTT, 48 h; read-out: MCF-7/DOX IC50 ± SD
# Description: as §1, §2
# MCF-10A cells [3] = experiment: MTT anti-proliferative assay, MCF-10A; format: cell-based, human; conditions: 48 h, normal breast epithelial cells, Table 2 prints no unit, μM
# Description: as §1, §2
# MCF-7 cells [4] = experiment: Annexin V-APC/7-AAD flow cytometry of apoptosis, MCF-7; format: cell-based, human; conditions: 24 h
# Description: (§3) MCF-7, MCF-7/DOX or MCF-10A cells, at a density of 2.5 × 10^5 cells per well, were cultured in regular growth medium in 6-well plates for 24 h and treated in duplicate with different concentrations of 6b or curcumin for 24 h. The cells were harvested, washed and stained with 5 μL of Annexin V-APC and 5 μL of 7-AAD at room temperature for 15 min. Cells were then analyzed by flow cytometry (488 nm excitation and 600 nm emission filters) using a BD FACSCalibur flow cytometer (Becton & Dickinson Company, Franklin Lakes, NJ).
# MCF-10A cells [5] = experiment: Annexin V-APC/7-AAD flow cytometry of apoptosis, MCF-10A; format: cell-based, human; conditions: concentrations up to 4 μM
# Description: as §3
# MCF-7/DOX cells [6] = experiment: Colony survival assay, MCF-7/DOX; format: cell-based, human; conditions: 24 h treatment, 14 d culture
# Description: MCF-7 or MCF-7/DOX cells were cultured a 6-well plate at a density of 800–1,000 cells/well with regular growth medium. Cells were treated for 24 h with the vehicle and 6b at 0.15–1 μM on the following day. Cells were allowed to grow for 10–14 d until colonies were visible. Crystal violet solution (Sigma, St. Louis, MO, USA) was used to stain the colonies for 4 hours and colonies were imaged.
# MCF-7 cells [7] = experiment: Flow cytometry of the cell cycle, MCF-7; format: cell-based, human; conditions: MCF-7, 24 h
# Description: MCF-7 or MCF-7/DOX cells were plated in 6-well culture plates (1.5 × 10^5 cells per well). After incubation overnight, various concentrations of 6b or curcumin were added and cells were incubated for 24 h. Cells were harvested, washed with cold PBS, and incubated with pre-cooled 70% ethanol for a minimum of 4 h at 4 °C to fix them. The cells were then centrifuged, carefully aspirated from the supernatant, and re-suspended in a propidium iodide (final concentration, 40 μg/ml) and RNase A (final concentration, 100 μg/ml) solution at a final cell density of 0.5 × 10^6 cells/ml. The suspension was incubated at 37 °C for 30 min prior to analysis by flow cytometry.
# STAT3 = experiment: IL-6 induced STAT3 phosphorylation (western blot); format: cell-based, human; conditions: 6 h, IL-6 50 ng/mL 30 min
# Description: MCF-7 or MCF-7/DOX cells were seeded in 6-well plates and allowed to adhere overnight. The following day, the cells were serum-starved. The cells were then left untreated or were treated with 6b (0.5–4 μM). After 6 h, the untreated and 6b-treated cells were stimulated with IL-6 (50 ng/ml). The cells were harvested after 30 min and analyzed by western blot.
# [8] = tested on: implanted human breast tumors (MCF-7); experiment: MCF-7 xenograft in BALB/c nude mice; format: in vivo; conditions: 10 mg/kg ip daily for 21 days
# Description: The working solution was prepared in a Cremophor and DMSO mixture (10% Cremophor, 10% DMSO and 80% 1 × PBS) to give a 1 mg/ml solution. Athymic BALB/c nude mice (15–18 g) were injected with human breast tumor MCF-7 cells (3 × 10^6 cells in a volume of 0.2 ml) into the subcutaneous tissue of the right auxiliary region of the mice. Three days after the tumor cell inoculation, the mice were randomly sorted into three groups with six mice per group. The tumor-bearing mice were either given a daily 10 mg/kg ip injection of compound 6b or the vehicle. The treatment was initiated when the tumor burden of the mice reached approximately 50 mm^3. The tumor size was measured by caliper three times a week to document tumor growth and calculated by the formula: length × width × width/2, and the body weight was measured and recorded. Therapeutic efficacy was evaluated based on body weight loss, tumor growth inhibition [determined by using calipers and calculated by the formula: tumor inhibit rate (%) = (tumor volCon − tumor volTre)/tumor volCon] × 100. The body weight inhibitory ratio, BI (%) was calculated as BI (%) = (1 −MT/MC) × 100, where MT and MC were the average body weights of the treated and control groups, respectively. On the 22nd day, all mice were killed, and the tumors were segregated, weighed, and stored in −80 °C for later use. The levels of p-STAT3 in tumor tissues prepared from control or mice treated with 6b were analyzed by western blot assay. Apoptosis was evaluated via the TUNEL assay, and the Ki-67 assay was used to assess cancer cell proliferation.
smiles,measurement,setting,value
"COc1ccc(/C=C/C(=O)N2CCN(C(=O)C3=Cc4cc(Br)ccc4S3(=O)=O)CC2)cc1 [Compound 6b, (E)-1-(4-(5-bromo-1,1-dioxidobenzo[b]thiophene-2-carbonyl)piperazin-1-yl)-3-(4-methoxyphenyl)prop-2-en-1-one]",IC50,MCF-7 cells [1],520 ± 160 nM
same,IC50,MCF-7/DOX cells [2],400 ± 10 nM
same,IC50,MCF-10A cells [3],7.72 ± 0.56 µM
same,IC50,"MCF-10A cells [3]; Homo sapiens, MCF-10A",7.7 µM
same,apoptosis rate,MCF-7 cells [4]; 1 μM,15.7%
same,apoptosis rate,MCF-7 cells [4]; 2 μM,37.9%
same,apoptosis rate,MCF-7 cells [4]; 4 μM,67.2%
same,apoptosis,MCF-10A cells [5],little
same,clonogenic ability / colony formation,MCF-7/DOX cells [6]; 0.25 μM,significant reduction in clonogenic ability
same,clonogenic ability / colony formation,MCF-7/DOX cells [6]; 0.5 μM,almost a cessation of colony formation
same,cells in the Sub-G1 phase,MCF-7 cells [7],significant increase
same,percentage of cells in S phase,MCF-7 cells [7],increased
same,STAT3 phosphorylation induced by IL-6,"STAT3; MCF-7, 4 μM",almost completely abolished
same,IL-6-induced phosphorylation levels of STAT3,"STAT3; MCF-7, low concentration (0.5–4 μM tested)",decreased
same,Ki-67 immunohistochemical staining in tumor tissues,[8],suppressed tumor cell proliferation
same,TUNEL assay of tumor cells,[8],induced tumor cell apoptosis
same,changes in the body weights of the mice,[8],no significant changes
same,reduction of the weight of the tumor tissues compared with the control,[8],68.2%
same,p-STAT3 in lysates from the tumor tissues (immunoblotting),[8]; vs control tumors,suppression of p-STAT3
same,volumes of the implanted human breast tumors,[8]; vs vehicle,significantly reduced
